What was measured:
[1] = tested on: three additional glioma cell lines and two human glioblastoma biopsies (X12 and X14)
Description: Spheroids from 6 glioma cell lines were grown in the presence of LiCl (10 mM or 20 mM).
Cell lines and chemicals. The U87 and U87ΔEGFR cell lines were provided by Dr. Webster Cavenee (Ludwig Institute for Cancer Research, La Jolla, Calif.). The human glioblastoma biopsies, X12 and X14 (from Dr. C. David James, Mayo Clinic, Rochester, Minn.), were maintained as flank tumors in nude mice as described (5). All cells were grown in DMEM with 10% FBS and 1% penicillin-streptomycin.

glioma cells = test: propidium iodide exclusion and metabolic cell viability assays; assay type: cell-based; conditions: under conditions that block cell motility
[2] = tested on: U87 glioma cell spheroids; test: U87 glioma spheroid invasion in collagen I matrix
Description: U87 control spheroid after 96 hours expansion in type I collagen with 20 mM NaCl.
Time course of U87 spheroid invasion, in the presence of increasing concentrations of LiCl. Measurements were taken daily over a period of four days.
Time course of spheroid expansion with 20 mM LiCl washed out from U87 spheres at 24 hour intervals. Subsequent expansion was monitored microscopically.
To investigate the role of GSK-3 in glioma invasion, experiments were carried out to examine the effects of lithium chloride (LiCl), a known inhibitor of GSK-3, on the invasion of U87 glioma cell spheroids embedded in a collagen I matrix.

[3] = target: T1, inositol monophosphatase (IMP) (Homo sapiens, UniProt P29218); conditions: cited from earlier work
T1 sequence (P29218 1-277): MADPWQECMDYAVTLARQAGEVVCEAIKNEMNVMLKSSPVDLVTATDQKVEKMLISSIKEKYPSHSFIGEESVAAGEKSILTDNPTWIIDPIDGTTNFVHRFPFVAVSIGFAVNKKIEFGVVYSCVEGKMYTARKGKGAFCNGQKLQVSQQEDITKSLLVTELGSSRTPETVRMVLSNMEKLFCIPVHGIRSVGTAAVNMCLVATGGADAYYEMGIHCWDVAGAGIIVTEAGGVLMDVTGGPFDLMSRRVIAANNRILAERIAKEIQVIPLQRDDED

Row | SMILES | spheroid expansion as a percentage of control spheres ([1]; X12 cells, 96 hours) | spheroid invasion in further glioma cell lines and biopsies ([1]; panel of glioma cell lines, X12 and X14) | cytotoxicity (glioma cells) | spheroid expansion as a percentage of control spheres ([2]; U87 cells, 96 hours) | invasion of glioma spheroids ([2]; U87 spheroids embedded in collagen I matrix) | reversibility of the invasion blockade ([2]; after removal of inhibitor, assay up to 96 hours) | potency as IMP inhibitor relative to lithium [3] [fold] | effect on invasion ([2]; concentrations as high as 400 μM)
1 | COc1ccc(CNC(=O)Nc2ncc([N+](=O)[O-])s2)cc1 [AR-A014418] | dose dependent decrease in spheroid expansion | observed in the full panel of cell lines | Minimal cytotoxicity | dose dependent decrease in spheroid expansion | dose-dependent blockade of invasion | reversible |  | 
2 | CC(Oc1ccc(O)cc1)(P(=O)(O)O)P(=O)(O)O [L-690, 330] |  |  |  |  |  |  | 1000 | no effect on invasion
3 | O=C1NC(=O)C(c2ccccc2[N+](=O)[O-])=C1Nc1ccc(O)c(Cl)c1 [SB415286] |  |  | Minimal cytotoxicity |  |  |  |  | 

— patent US20100143500A1, “Methods and Compositions for Inhibiting GSK-3 In Glial Cell Related Disorders” (THE OHIO STATE UNIVERSITY RESEARCH FOUNDATION, priority 2006, published 2010)
